Reference: article PMC9953701 (Biomedicines, 2023)
Read-outs that look alike come from different tables or passages of the source. No end group written: not given here.

How the values were obtained:
[1] = system: Bacillus subtilis CCUG 163BT; format: cell-based
Method: (§1) The three bacterial strains—Escherichia coli ATCC 25922, Pseudomonas aeruginosa ATCC 27853, and Staphylococcus aureus ATCC 29213—as well as the fungal strain Candida albicans ATCC 90028 were provided by the Department of Clinical Bacteriology, Lund University Hospital. Bacillus subtilis CCUG 163B^T and Bacillus cereus CCUG 7414^T were obtained from the Department of Molecular Sciences, Swedish University of Agricultural Sciences.
(§2) Antimicrobial activities of the peptides were evaluated using the two-step microdilution assay, which is designed for testing AMPs without activity-inhibiting components. Briefly, bacteria were grown to the mid-logarithmic phase at 37 °C in 3% (w/v) tryptic soy broth (TSB) (Merck KGaA, Darmstadt, Germany). The microbial culture was washed twice by centrifugation and resuspension in 10 mM Tris buffer (pH 7.4 at 37 °C, adjusted by HCl). The microbial suspension was quantified by OD600, diluted, and transferred to 96-well untreated polystyrene microplates prepared with 2-fold serial dilutions of the peptides using 50,000 bacteria per well (all dilutions in Tris buffer). These were incubated for 5 h at 37 °C, after which 5 µL of 20% (w/v) TSB was added to each well and the microplates were re-incubated for an additional 6–12 h (depending on the growth rate of each organism). All MICs presented are the medians from triplicate experiments performed independently.

[2] = system: Bacillus cereus CCUG 7414T; format: cell-based
Description: as §1
(§3) The standard broth microdilution assay was utilized to assess the MIC of designed peptides according to the guidelines of the Clinical and Laboratory Standards Institute (CLSI). Briefly, bacteria were grown in unbuffered Mueller–Hinton Broth (MHB, VWR International, Leuven, Belgium) as well as buffered (containing 50 mM NaHCO3) medium to the mid-logarithmic phase and were quantified by OD600. The bacterial suspension was diluted in the same medium to reach a final density of 1 × 10^6 colony-forming unit per milliliter (CFU/mL). A volume of 50 µL of the bacterial suspension was added to 96-well plates containing 50 µL of MHB in the absence (viability control) or the presence of the peptides at different concentrations (0.625–80 µM). […] MIC values were derived from 3 sets of independent experiments with different bacterial cultures.

[3] = system: Bacillus subtilis CCUG 163BT; format: cell-based; remark: listed apart in the source
Description: as §1, §3

[4] = system: human red blood cells (RBCs); assay: Hemolysis assay; format: cell-based; details: human RBCs 0.25% in PBS pH 7.4, 80 μM peptide (highest test concentration), 1 h, 37 °C, absorbance 405 nm, relative to 1% Triton X-100
Method: The hemolytic assay was conducted by preparing a stock solution of 320 μM peptides in MilliQ water and serially diluted in PBS to give 100 μL test solutions in a 96-well U-bottom microtiter plate (Nunc). Human-type RBCs (red blood cells) were collected from the donor, washed with PBS (pH 7.4) three times, and centrifuged at 1500× g for 60 s. A pellet of RBCs was resuspended to 0.25% (v/v) solution in PBS (pH 7.4). A 100 μL 0.25% suspension of washed RBCs in PBS was dispensed into each well containing serially diluted peptide solutions and incubated at 37 °C for 1 h. The 96-well plate was centrifuged at 150× g for 5 min and aliquots of 100 μL were transferred to a 96-well U-bottomed microtiter plate (Falcon) and the absorbance was measured at 405 nm with an automatic Multiskan Ascent plate reader (Labsystems). The amount of hemolysis was calculated as the percentage of maximum lysis (1% Triton X-100 control) after adjusting for minimum lysis (PBS control).

[5] = target: T1, aureolysin from S. aureus (Staphylococcus aureus, UniProt P81177); assay: Stability in the presence of the protease aureolysin; format: in vitro ADME; details: peptide:enzyme 200:1, 37 °C, RP-HPLC-MS
T1 construct: purchased
T1 sequence (P81177 209-509): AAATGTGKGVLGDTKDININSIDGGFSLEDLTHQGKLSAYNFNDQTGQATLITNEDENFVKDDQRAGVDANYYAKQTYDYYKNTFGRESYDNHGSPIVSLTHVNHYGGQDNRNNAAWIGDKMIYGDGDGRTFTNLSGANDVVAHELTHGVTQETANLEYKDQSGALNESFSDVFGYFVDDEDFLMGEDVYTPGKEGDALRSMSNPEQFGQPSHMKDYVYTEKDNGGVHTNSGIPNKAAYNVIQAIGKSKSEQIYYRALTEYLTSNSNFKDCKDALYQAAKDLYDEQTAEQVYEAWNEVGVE
Method: Peptide stability was also assayed in commercially available Gram-positive, S. aureus protease, aureolysin. […] All the samples were then incubated at 37 °C at different incubation times. The reaction was quenched by acidifying with 5 µL of 0.1% formic acid. The samples were analyzed on MS coupled to RP-HPLC.

[6] = system: Bacillus cereus CCUG 7414T; format: cell-based; details: B. cereus; TSB, Tryptic Soy broth (rich media, unbuffered)
[7] = system: Bacillus subtilis CCUG 163BT; format: cell-based; details: B. subtilis; TSB, Tryptic Soy broth (rich media, unbuffered)
[8] = cited from earlier work
Method: One of the major limitations of AMPs for clinical use is their inactivation by both endogenous human proteases and proteases secreted from invading microbes. From our previous studies, it was evident that KR-12 and truncated analogs degrade within 10 min in diluted human serum. More recently, we have shown that the KR-12 cyclic dimer peptides were stable for up to 6 h in diluted human serum but the recovery of LL-37 was very low during the precipitation step of the assay, either due to binding of LL-37 with serum components or rapid degradation. We also compared the stability pro ...

[9] = system: Salmonella enterica serovar Typhimurium DA6192 wild type and LL-37-resistant mutants (waaY, phoP); assay: MIC against LL-37-resistant strains in buffer conditions; format: cell-based; set-up: unit not given here; details: 20 mM sodium phosphate buffer with 0.1% TSB, 16 to 20 h, 37 °C
Method: (§4) The LL-37 resistant mutants (DA22427 and DA23307) used in this study were derived from Salmonella enterica serovar Typhimurium DA6192, wild-type and cyclotides-resistant mutants (DA54114 and DA57107) were derived from E. coli MG1655 (wild type) and were kindly provided by Department of Medical Biochemistry and Microbiology, Uppsala University.
(§5) MIC measurements were performed in 20 mM sodium phosphate buffer (PBS), supplemented with 0.1% TSB in 96-well plates (round bottom, Nunc A/S, Roskilde, Denmark) in a total volume of 100 µL. The overnight cultures were diluted 5 × 10^5 CFU/mL in the same medium and 90 µL was transferred into the plates containing 10 µL of 2-fold diluted peptides. […] At least two independent experiments were performed with two technical replicates. In cyclotides, resistant mutant average MIC was reported.

[10] = system: E. coli MG1655 wild type and cyclotides-resistant mutants; assay: MIC against cyclotide-resistant strains in buffer conditions; format: cell-based, Escherichia coli; set-up: unit not given here
Method: as §4, §5

[11] = system: Bacillus cereus CCUG 7414T; format: cell-based; details: CCUG 7414, 5 h
Method: as §1, §2

[12] = system: Escherichia coli ATCC 25922; format: cell-based; details: ATCC 25922, 24 h
Description: as §1, §3

[13] = system: Pseudomonas aeruginosa ATCC 27853; format: cell-based; details: ATCC 27853, 24 h
Description: as §1, §3

[14] = system: aureolysin; assay: commercially available Gram-positive, S. aureus protease, aureolysin; details: 37 °C, up to 24 h
[15] = S. typhimurium phoP LL-37-resistant mutant
[16] = S. typhimurium waaY LL-37-resistant mutant
[17] = E. coli DA54114 cyclotide-resistant mutant, sodium phosphate buffer with 0.1% TSB, average MIC
[18] = E. coli DA57107 cyclotide-resistant mutant, sodium phosphate buffer with 0.1% TSB, average MIC
[19] = E. coli WT (MG1655), 20 mM sodium phosphate buffer with 0.1% TSB, 16 to 20 h, 37 °C

Compound	MIC ([9]; S. typhimurium WT (DA6192))	MIC [9, 15]	MIC [9, 16]	MIC [10, 17]	MIC [10, 18]	MIC [10, 19]	MIC ([1]; CCUG 163, 5 h)	MIC ([2]; CCUG 7414, 24 h)	MIC ([3]; CCUG 163, 24 h)	MIC [12]	MIC [13]	further results
CC[C@H](C)[C@H](NC(=O)[C@H](CCCCN)NC(=O)[C@H](CCC(=O)O)NC(=O)[C@H](CCCCN)NC(=O)[C@H](CO)NC(=O)[C@H](CCCCN)NC(=O)[C@H](CCCNC(=N)N)NC(=O)[C@H](Cc1ccccc1)NC(=O)[C@H](Cc1ccccc1)NC(=O)[C@H](CC(=O)O)NC(=O)CNC(=O)[C@H](CC(C)C)NC(=O)[C@@H](N)CC(C)C)C(=O)NCC(=O)N[C@@H](CCCCN)C(=O)N[C@@H](CCC(=O)O)C(=O)N[C@@H](Cc1ccccc1)C(=O)N[C@@H](CCCCN)C(=O)N[C@@H](CCCNC(=N)N)C(=O)N[C@H](C(=O)N[C@H](C(=O)N[C@@H](CCC(N)=O)C(=O)N[C@@H](CCCNC(=N)N)C(=O)N[C@H](C(=O)N[C@@H](CCCCN)C(=O)N[C@@H](CC(=O)O)C(=O)N[C@@H](Cc1ccccc1)C(=O)N[C@@H](CC(C)C)C(=O)N[C@@H](CCCNC(=N)N)C(=O)N[C@@H](CC(N)=O)C(=O)N[C@@H](CC(C)C)C(=O)N[C@H](C(=O)N1CCC[C@H]1C(=O)N[C@@H](CCCNC(=N)N)C(=O)N[C@H](C(=O)N[C@@H](CCC(=O)O)C(=O)N[C@@H](CO)C(=O)O)[C@@H](C)O)C(C)C)[C@@H](C)CC)C(C)C)[C@@H](C)CC [LL-37]												MIC ([1]; B. subtilis, Control: two-step microdilution assay in Tris buffer 10 mM without salts): 1.25 µM; MIC ([2]; B. cereus, MHB, Muller-Hinton broth (rich media, unbuffered)): > 80 µM; MIC ([3]; B. subtilis, MHB, Muller-Hinton broth (rich media, unbuffered)): > 80 µM; hemolysis [4]: 19–23%; time to hydrolysis of the Leu31-Val32 peptide bond by aureolysin [5]: ≤ 5 min; MIC [6]: > 80 µM; MIC [7]: > 80 µM; recovery during the precipitation step of the serum stability assay ([8]; diluted human serum): very low
Kalata B7												time for which the peptide was stable in aureolysin (stable for up to) [5]: ≥ 24 h
KRIVQRIKDFLR [KR-12]	20	20	20	1	1	1	5 µM	> 80 µM	> 80 µM	> 20 µM	>20 µM	MIC [11]: 2.5 µM; time within which the peptide degrades in diluted human serum [8]: ≤ 10 min
LLGDFFRKSKEKIGKEFKRIVQRIKDFLRNLVPRTES												cleaved bond [14]: Leu31-Val32, first_seen, within the first 5 min
KRIVKRIKAFLR [KR-12 (Q5K,D9A)]	10	10	10	1	1	1	1.25 µM	> 80 µM	> 80 µM	10 µM	10 µM	
